These results are taken from US10160763B2, “WDR5 inhibitors and modulators” (Vanderbilt University, priority 2016, dated 2018).

As a reminder, the Kd is the equilibrium constant for the complex coming apart. High values mean a looser complex, low ones a tighter complex.

In the test the target is WDR5 (Δ23, residues 24-334) (Homo sapiens, UniProt P61964). Kind of test: biochemical. Particulars: Kd (M), FPA-based binding affinity at the WDR5 WIN site; IC50 converted to Kd by modified Cheng-Prusoff equation; average of two experiments.
In turn, `CC(NC(=O)Cc1ccc(F)c(Cl)c1)c1cccc(-c2cn3c(n2)CCC3)c1` (centres unmarked) [B206] registered a dissociation constant Kd of 1.35e-06 M. In other words, the single-digit micromolar range.

`COc1cc(C(=O)NC(C)c2cc(-c3cn4c(n3)CCC4)ccc2OC2CCC2)ccc1C` (centres unmarked) [B207] registered a dissociation constant Kd of 1.6e-08 M.

In turn, `CC(=O)N1CCC(C(=O)NCc2cccc(-c3cn4c(n3)CCC4)c2)CC1` [B25, 1-Acetyl-N-(3-(6,7-dihydro-5H-pyrrolo[1,2-a]imidazol-2-yl)benzyl)piperidine-4-carboxamide] had a dissociation constant (Kd) of 1.37e-06 M.

`COc1cccc(C(=O)NCc2cc(-c3cn4c(n3)CCC4)ccc2N2CCN(C)CC2)c1` [B147, N-(5-(6,7-dihydro-5H-pyrrolo[1,2-a]imidazol-2-yl)-2-(4-methylpiperazin-1-yl)benzyl)-3-methoxybenzamide]: the dissociation constant (Kd) came out at 2.22e-06 M.

`COc1ccc(C(=O)N(Cc2cc(Cl)cc(-c3cn4c(n3)CCC4)c2)CC2CC2)cc1OC` [B46] returned a dissociation constant (Kd) of 1.25e-07 M.

As for `O=C(NCc1cc(-c2cn3c(n2)CCC3)ccc1N1CCOCC1)c1cc(Cl)ccn1` [B195], binding was put at a Kd of 9.61e-07 M.

For `O=C(Cc1cc(Cl)cc(Cl)c1)NCc1cccc(-c2cn3c(n2)CCC3)c1` [B18], the equilibrium dissociation constant (Kd) was found to be 2.08e-07 M.

With `CC(NC(=O)Cc1ccc(F)c(Cl)c1)c1cc(-c2cn3c(n2)CCC3)ccc1N1CCOCC1` (centres unmarked) [B214], the affinity, expressed as Kd, was 4e-08 M.

`Cc1cc(Cl)cc(C(=O)NCc2cccc(-c3cn4c(n3)CCC4)c2)c1` [B160]: the affinity, expressed as Kd, was 1.81e-06 M.

With `COc1cc(C(=O)NC(C)c2cc(-c3cn4c(n3)CCC4)ccc2N2CCOCC2)ccc1C` (centres unmarked) [B213], the dissociation constant Kd stood at 4.7e-08 M.

Molecule `CCC(C)N(Cc1cccc(-c2cn3c(n2)CCC3)c1)C(=O)c1cccc(OC)c1` (centres unmarked) [B86] came in with a Kd of 4.25e-07 M. This Kd is about 9-fold higher than that of the molecule before.

Molecule `O=C(Cc1ccc(F)c(Cl)c1)NCc1cc(-c2cn3c(n2)CCC3)ccc1N1CCOCC1` [B193] came in with a Kd of 3.23e-06 M.

`COc1cc(C(=O)NCc2cc(-c3cn4c(n3)CCC4)ccc2N2CC(C)OC(C)C2)ccc1C` (centres unmarked) [B174] had a Kd of 1.12e-07 M.

As for `O=C(Cc1ccncc1)NCc1cccc(-c2cn3c(n2)CCC3)c1` [B123], binding was put at a Kd of 2.2e-08 M.

`COc1cc(C(=O)NCc2cc(-c3cn4c(n3)CCC4)cnc2N2CCOCC2)ccc1C` [B223, N-((5-(6,7-dihydro-5H-pyrrolo[1,2-a]imidazol-2-yl)-2-morpholinopyridin-3-yl)methyl)-3-methoxy-4-methylbenzamide] came in with a Kd of 9.1e-08 M.

In the case of `COc1ccc(C(=O)N(Cc2cccc(-c3cn4c(n3)CCC4)c2)C2CC2)cc1OC` [B53], the Kd worked out at 1.14e-06 M.

`O=C(NCc1cccc(-c2cn3c(n2)CCC3)c1)C1CC1c1ccccc1` (centres unmarked) [B39] showed a Kd of 5.61e-07 M.

`O=C(NCc1cccc(-c2cn3c(n2)CCC3)c1)C1CCNCC1` [B27] registered a dissociation constant (Kd) of 4.19e-06 M.

On to `CC(=O)N1CCCC(CC(=O)NCc2cccc(-c3cn4c(n3)CCC4)c2)C1` (centres unmarked) [B140], for which binding was put at a Kd of 8.67e-07 M.

`O=C(NCc1cccc(-c2cn3c(n2)CCC3)c1)C1CCCN(C(=O)C2CC2)C1` (centres unmarked) [B187] yielded a Kd of 9.47e-07 M. This Kd and that of the molecule before are within 1.5-fold of each other.
